In ChEMBL document CHEMBL1909046, “DrugMatrix in vitro pharmacology data”:

Columns and labels:
[1] = biological target: T1, Calcitonin receptor (Homo sapiens, UniProt P30988); format: cell membranes, Membrane; conditions: t47d; also: in other assays of this panel Not Active means under 50% inhibition at 10 µM
T1 sequence (P30988 whole entry): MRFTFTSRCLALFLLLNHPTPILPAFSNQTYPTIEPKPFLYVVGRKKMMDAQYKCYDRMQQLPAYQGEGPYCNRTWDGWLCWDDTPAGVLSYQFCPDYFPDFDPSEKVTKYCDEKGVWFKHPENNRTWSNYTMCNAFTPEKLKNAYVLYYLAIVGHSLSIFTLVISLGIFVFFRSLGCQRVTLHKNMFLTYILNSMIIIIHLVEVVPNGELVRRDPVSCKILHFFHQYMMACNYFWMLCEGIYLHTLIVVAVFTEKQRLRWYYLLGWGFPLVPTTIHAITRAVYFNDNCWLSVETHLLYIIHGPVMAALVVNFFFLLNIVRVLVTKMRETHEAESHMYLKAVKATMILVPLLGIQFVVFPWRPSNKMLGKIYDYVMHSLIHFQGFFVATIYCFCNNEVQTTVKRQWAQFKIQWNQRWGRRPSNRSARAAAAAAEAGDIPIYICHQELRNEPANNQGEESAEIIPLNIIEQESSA

[2] = biological target: T2, Receptor-type tyrosine-protein phosphatase C (Homo sapiens, UniProt P08575); set-up: species or system Escherichia coli;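 also: inhibition of CD45 enzyme activity measured using DiFMUP as substrate; in other assays of this panel Not Active means under 50% inhibition at 10 µM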
T2 sequence (P08575 whole entry): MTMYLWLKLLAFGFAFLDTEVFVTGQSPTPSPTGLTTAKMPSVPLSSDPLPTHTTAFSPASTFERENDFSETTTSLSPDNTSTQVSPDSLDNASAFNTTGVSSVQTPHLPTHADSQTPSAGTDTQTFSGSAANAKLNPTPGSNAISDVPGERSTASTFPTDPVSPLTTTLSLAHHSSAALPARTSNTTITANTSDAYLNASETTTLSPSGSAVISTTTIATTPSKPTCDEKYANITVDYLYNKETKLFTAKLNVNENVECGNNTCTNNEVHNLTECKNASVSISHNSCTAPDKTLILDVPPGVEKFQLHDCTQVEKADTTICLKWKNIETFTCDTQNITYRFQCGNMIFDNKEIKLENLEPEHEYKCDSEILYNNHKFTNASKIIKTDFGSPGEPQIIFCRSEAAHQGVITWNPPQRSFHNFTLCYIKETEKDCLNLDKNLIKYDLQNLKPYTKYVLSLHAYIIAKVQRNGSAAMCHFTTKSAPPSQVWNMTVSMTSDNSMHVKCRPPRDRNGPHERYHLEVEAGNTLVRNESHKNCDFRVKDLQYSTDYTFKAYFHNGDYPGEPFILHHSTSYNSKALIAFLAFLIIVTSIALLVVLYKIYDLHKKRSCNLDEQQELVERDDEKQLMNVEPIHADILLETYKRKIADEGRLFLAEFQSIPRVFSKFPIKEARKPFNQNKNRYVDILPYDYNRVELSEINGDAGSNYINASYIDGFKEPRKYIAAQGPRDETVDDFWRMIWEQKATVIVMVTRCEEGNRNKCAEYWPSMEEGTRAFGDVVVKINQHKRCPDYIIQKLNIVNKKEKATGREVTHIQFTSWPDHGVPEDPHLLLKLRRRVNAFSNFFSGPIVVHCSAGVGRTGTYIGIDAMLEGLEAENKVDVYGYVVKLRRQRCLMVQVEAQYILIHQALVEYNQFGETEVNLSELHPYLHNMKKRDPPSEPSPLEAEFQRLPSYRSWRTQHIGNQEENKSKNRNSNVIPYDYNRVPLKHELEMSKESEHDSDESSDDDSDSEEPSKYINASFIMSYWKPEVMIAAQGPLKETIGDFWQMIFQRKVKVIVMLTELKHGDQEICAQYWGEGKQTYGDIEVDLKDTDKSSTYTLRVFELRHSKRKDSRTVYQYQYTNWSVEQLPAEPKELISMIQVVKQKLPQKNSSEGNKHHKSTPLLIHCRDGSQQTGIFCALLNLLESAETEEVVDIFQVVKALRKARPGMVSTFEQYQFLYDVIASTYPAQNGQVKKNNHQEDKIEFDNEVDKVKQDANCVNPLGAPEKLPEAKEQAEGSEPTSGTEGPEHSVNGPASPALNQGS

[3] = biological target: T3, Alpha-2A adrenergic receptor (Homo sapiens, UniProt P08913); format: cell membranes, Sf9, Membrane; conditions: sf9; also: in other assays of this panel Not Active means under 50% inhibition at 10 µM
T3 sequence (P08913 whole entry): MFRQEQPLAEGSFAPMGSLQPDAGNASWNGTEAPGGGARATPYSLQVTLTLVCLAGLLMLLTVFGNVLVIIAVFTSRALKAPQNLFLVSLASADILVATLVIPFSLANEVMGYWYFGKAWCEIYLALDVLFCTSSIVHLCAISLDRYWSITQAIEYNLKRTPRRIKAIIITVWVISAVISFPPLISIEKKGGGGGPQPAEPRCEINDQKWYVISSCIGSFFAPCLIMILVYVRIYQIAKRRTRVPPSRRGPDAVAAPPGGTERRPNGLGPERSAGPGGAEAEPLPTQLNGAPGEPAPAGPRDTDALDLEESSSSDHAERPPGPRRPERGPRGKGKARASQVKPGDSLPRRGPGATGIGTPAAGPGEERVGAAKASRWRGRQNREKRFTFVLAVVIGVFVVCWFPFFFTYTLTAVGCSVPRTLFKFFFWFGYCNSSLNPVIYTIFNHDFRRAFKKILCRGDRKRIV

[4] = biological target: T4, D(4) dopamine receptor (Homo sapiens, UniProt P21917); test: DRUGMATRIX: Dopamine D4.2 radioligand binding (ligand: [3H] Spiperone); format: cell membranes, Membrane; conditions: cho-k1; Not Active = under 50% inhibition at 10 µM
T4 sequence (P21917 whole entry): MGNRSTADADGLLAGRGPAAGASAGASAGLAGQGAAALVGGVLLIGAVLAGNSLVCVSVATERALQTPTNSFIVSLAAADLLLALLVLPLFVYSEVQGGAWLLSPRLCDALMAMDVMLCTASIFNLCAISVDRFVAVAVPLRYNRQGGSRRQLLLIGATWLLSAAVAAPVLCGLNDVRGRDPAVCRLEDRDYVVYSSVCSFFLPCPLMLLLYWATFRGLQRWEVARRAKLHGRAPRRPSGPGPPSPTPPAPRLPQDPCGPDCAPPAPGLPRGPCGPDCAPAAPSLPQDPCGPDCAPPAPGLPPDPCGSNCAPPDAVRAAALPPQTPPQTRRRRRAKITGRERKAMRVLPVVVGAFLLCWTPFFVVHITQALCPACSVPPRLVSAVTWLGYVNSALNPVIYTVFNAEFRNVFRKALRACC

[5] = DRUGMATRIX: Phorbol Ester radioligand binding (ligand: [3H] PDBu); format: cell membranes, Mus musculus, ICR, Brain, Membrane; conditions: Not Active = under 50% inhibition at 10 µM

COc1ccc2[nH]c([S+]([O-])Cc3ncc(C)c(OC)c3C)nc2c1 (configuration not stated) [OMEPRAZOLE]
Not Active: IC50 [1] | IC50 [2] | IC50 [3] | IC50 [4] | IC50 [5] | Ki [5]

Cc1nccn1CC1CCc2c(c3ccccc3n2C)C1=O (configuration not stated) [ONDANSETRON]
Not Active: IC50 [1] | IC50 [2] | IC50 [3] | IC50 [4] | IC50 [5] | Ki [5]

CCn1cc(C(=O)O)c(=O)c2cc(F)c(N3CCN(C)CC3)cc21 [PEFLOXACIN]
Not Active: IC50 [1] | IC50 [2] | IC50 [3] | IC50 [4] | IC50 [5] | Ki [5]

CCCCOc1ccc(OCCCN2CCOCC2)cc1 [PRAMOXINE]
Not Active: IC50 [1] | IC50 [2] | IC50 [3] | IC50 [4] | IC50 [5] | Ki [5]

O=C(C1CCCCC1)N1CC(=O)N2CCc3ccccc3C2C1 (configuration not stated) [PRAZIQUANTEL]
Not Active: IC50 [1] | IC50 [2] | IC50 [3] | IC50 [4] | IC50 [5] | Ki [5]

CCN(CC)CCOC(=O)c1ccc(N)cc1 [PROCAINE]
Not Active: IC50 [1] | IC50 [2] | IC50 [3] | IC50 [4] | IC50 [5] | Ki [5]

CCCN(CCC)C(=O)C(CCC(=O)O)NC(=O)c1ccccc1 (configuration not stated) [PROGLUMIDE]
Not Active: IC50 [1] | IC50 [2] | IC50 [3] | IC50 [4] | IC50 [5] | Ki [5]

NC(=O)c1cnccn1 [PYRAZINAMIDE]
Not Active: IC50 [1] | IC50 [2] | IC50 [3] | IC50 [4] | IC50 [5] | Ki [5]

OC(CCN1CCCCC1)(c1ccccc1)C1CCCCC1 (configuration not stated) [TRIHEXYPHENIDYL]
Not Active: IC50 [1] | IC50 [2] | IC50 [3] | IC50 [4] | IC50 [5] | Ki [5]

Cc1cc2cc3c(C)cc(=O)oc3c(C)c2o1 [TRIOXSALEN]
Not Active: IC50 [1] | IC50 [2] | IC50 [3] | IC50 [4] | IC50 [5] | Ki [5]

CCCC(CCC)C(=O)O [VALPROIC ACID]
Not Active: IC50 [1] | IC50 [2] | IC50 [3] | IC50 [4] | IC50 [5] | Ki [5]

CCC1=C[C@@H]2CN(C1)Cc1c([nH]c3ccccc13)[C@@](C(=O)OC)(c1cc3c(cc1OC)N(C)[C@H]1[C@@](O)(C(=O)OC)[C@H](OC(C)=O)[C@]4(CC)C=CCN5CC[C@]31[C@@H]54)C2 [VINORELBINE]
Not Active: IC50 [1] | IC50 [2] | IC50 [3] | IC50 [4] | IC50 [5] | Ki [5]

CADMIUM DICHLORIDE
Not Active: IC50 [1] | Ki [1] | IC50 [2] | Ki [2] | IC50 [4] | Ki [4] | IC50 [5] | Ki [5]
6.92 µM: IC50 ([3]; read-out: IC50)
2.59 µM: Ki ([3]; read-out: Ki)
